These results are taken from US7341836B2, “Modified cyclic nucleotide gated ion channels” (The Regents of the University of Colorado, priority 2001, dated 2008).

For assay [1], the system named is rat olfactory CNG channel α subunit. Kind of assay: Excised inside-out patch recordings, cyclic nucleotide dose-response of CNG channel constructs. It counts as biochemical. The note with it: 100 μM IBMX; 1 μM PGE1. The procedure, abridged: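 Inside-out patches were excised and recorded at 20-21° C., with symmetrical 130 mM NaCl, 2 mM HEPES, 0.02 mM EDTA, 1 mM EGTA, pH 7.6. Currents were elicited by 250 ms pulses to +50 and −50 mV; cyclic nucleotide-induced current was taken as the difference with and without cNMP. cAMP and cGMP dose-responses were fitted to the Hill equation for K1/2 and N.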

The subject of assay [2] is HEK-293 cells expressing C460W/E583M channels. Kind of assay: PGE1-induced cAMP responses in cell populations (Ca2+ influx through C460W/E583M channels). Conditions: for effect of PDE inhibitor added after PGE1: 100 μM IBMX or 10 μM RO-20-1724. It counts as cell-based, human. The source says: In this Example, experiments conducted to detect cAMP levels in cells are described. Changes in cyclic AMP concentrations in response to PGE1 stimulation were monitored in HEK-293 cells by measuring Ca^2+ influx through C460W/E583M CNG channels (See, Rich et al. [2001], supra). HEK-293 cells express a variety of extracellular receptors including prostanoid receptors (Thomas and Hoffman, Mol. Pharmacol., 49:907-914 [1996]), and the cAMP-specific PDE type IV (Rich et al. [2001], supra; and Hoffmann et al., EMBO J., 18:893-903 [1999]). Based on PCR analysis, these cells also appear to express AC types II, […], VI, and VII, (Hellevuo et al., Biochem. Biophys. Res. Commun., 192:311-318 [1993]). C460W/E583M channels were expressed heterologously using an adenovirus construct (See, Rich et al. [2001], supra). The Ca^2+ permeability of the channel was used to detect changes in local cAMP concentration; the fluorescent indicator fura-2 was used to monitor Ca^2+ entry. With this approach, incremental changes in cAMP concentration are readily detected as changes in relative Ca^2+ influx rates through C460W/E583M channels (See, Rich et al., [2001], supra).
Transient responses were observed over a large range of PGE1 concentrations, from 0.01 to 10 μM (FIG. 17, Panel A). […] The decline was unlikely to result primarily from a reduction in AC activity (e.g., receptor desensitization), because of the sustained accumulation of total cellular cAMP in the presence of IBMX (See, FIG. 16, Panel B). To verify this, 100 μM IBMX was added at various times after PGE1 application.
To test whether PGE1 did indeed increase the total PDE activity, 100 nM PGE1 were added at various times after the initial application of 100 nM PGE1 (a subsaturating concentration). There was a negligible response to the subsequent addition of PGE1, even after 50 min (FIG. 17, Panel D). Taken together, the results of the experiments shown in FIG. 17, Panels C and D argue that the cAMP transient is due to an initial increase in AC activity, followed by a more profound increase in PDE activity. […] As indicated herein, these processes are crucial for the generation of spatially and temporally distinct cAMP signals.

For assay [3], the system named is PDE III. The note with it: cited from earlier work.
The test system of assay [4] is PDE IV. Conditions: cited from earlier work.
Assay [5] relates to PDE VI. The note with it: cited from earlier work.
In assay [6] the target is T1, PDE XI (Homo sapiens, UniProt Q9HCR9).
T1 construct: host or cells: heterologously expressed
The note with it: cited from earlier work.

The structures appear in SMILES notation. “Also recorded” adds a separate entry of the source.

T1 sequence (Q9HCR9 445-933 limits assumed): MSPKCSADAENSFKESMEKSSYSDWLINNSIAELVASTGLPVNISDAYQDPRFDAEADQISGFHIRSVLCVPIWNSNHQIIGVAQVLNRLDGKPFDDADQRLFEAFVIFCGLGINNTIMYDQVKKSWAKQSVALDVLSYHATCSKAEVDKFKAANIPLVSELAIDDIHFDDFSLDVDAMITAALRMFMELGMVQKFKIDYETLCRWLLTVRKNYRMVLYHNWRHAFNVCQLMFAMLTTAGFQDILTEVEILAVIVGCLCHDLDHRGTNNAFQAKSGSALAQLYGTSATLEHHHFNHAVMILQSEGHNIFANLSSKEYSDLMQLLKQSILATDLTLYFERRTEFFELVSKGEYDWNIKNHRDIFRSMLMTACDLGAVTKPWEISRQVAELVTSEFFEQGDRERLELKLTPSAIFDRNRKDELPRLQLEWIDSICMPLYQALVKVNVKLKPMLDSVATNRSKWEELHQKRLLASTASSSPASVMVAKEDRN

Turning to `CC(C)Cn1c(=O)n(C)c(=O)c2[nH]cnc21` [IBMX, 3-isobutyl-1-methylxanthine], the “effect on CNG channel activity in excised membrane patches” value in assay [1] is “did not alter CNG channel activity; also recorded: no effect on channel activity”. Besides, the “slopes of the IBMX-induced responses” value in assay [2] (100 μM IBMX added 1-50 min after 100 nM PGE1) was determined as 0.0044 ± 0.0008 s⁻¹. In addition, in assay [2], the “effect of PDE inhibitor added after PGE1” value is reported as “triggered a rapid Ca^2+ influx”. Also, the IC50 in assay [3] was 2 µM; in assay [4], 5 to 15 µM; in assay [5] it was 10 µM; in assay [6], 49.8 µM.

As to `CCCCOc1cc(CC2CNC(=O)N2)ccc1OC` (centres unmarked) [RO-20-1724, 4-(3-butoxy-4-methoxybenzyl)-2-imidazolidinone], the “effect on CNG channel activity in excised membrane patches” value in assay [1] is recorded as “no effect on channel activity”. Moreover, in assay [2], the “effect of PDE inhibitor added after PGE1” value is recorded as “caused sharp increases in cAMP”. The IC50 in assay [3] is 52 µM.

As for `COc1ccc(C2CNC(=O)C2)cc1OC1CCCC1` (centres unmarked) [Rolipram], the IC50 in assay [6] was above 100 µM.

What is called IC50 is the point on the concentration scale where inhibition reaches its midpoint.
